This series in a line: Pharmacokinetics in male cynomolgus monkeys. Format: in vivo. The settings on record: cynomolgus monkey, plasma. The method, then: Male Sprague-Dawley (SD) rats (300–350 g) were fasted overnight, and three per group received BMS-869780 either as an intravenous (IV) infusion in PEG400 : ethanol (90 : 10 w/w) at 1 mg/kg over 5 min via the jugular vein or as nanosuspension (d50 ca. 300 nm) by oral gavage at 5 mg/kg in Povidone K-30 : sodium lauryl sulfate : water (2.5 : 0.12 : 97.38 w/w/w/w). For the IV infusion, serial blood samples were obtained before dose and at 0.17, 0.25, 0.5, 0.75, 1, 2, 4, 6, 8, and 24 hours after dose. For the PO nanosuspension, serial blood samples were obtained before dose and at 0.25, 0.5, 0.75, 1, 2, 4, 6, 8, and 24 h after dose. Blood samples, ~0.3 mL, for all studies were collected from the jugular vein into K3EDTA-containing tubes and then centrifuged at 4°C (1500–2000 ×g) to obtain plasma, which was stored at −20°C until analysis by LC/MS/MS. In male beagle dogs, the PK of BMS-869780 was evaluated in a cross-over study design with a one-week washout between treatments. Dogs were fasted overnight, and three animals (9.5 to 10.7 kg) received BMS-869780 by IV infusion at 1 mg/kg over 5 minutes in PEG400 : ethanol (90 : 10 w/w) or as nanosuspension (d50 ca. 300 nm) by oral gavage at 5 mg/kg in Povidone K-30 : sodium lauryl sulfate : water (2.5 : 0.12 : 97.38 w/w/w/w). Serial blood samples (~0.3 mL) were collected from a saphenous vein into K3EDTA-containing tubes before dose and at 0.083, 0.17, 0.25, 0.5, 0.75, 1, 2, 4, 6, 8, and 24 hours after IV dose, and 0.25, 0.5, 0.75, 1, 2, 4, 6, 8, and 24 hours after oral dose, followed by centrifugation at 4°C (1500 to 2000 ×g) to obtain plasma. Samples were stored at −20°C until analysis of BMS-869780 levels by LC-MS/MS. In male cynomolgus monkeys, the PK of BMS-869780 was evaluated in a cross-over study design with a 1-week washout between treatments. Following an overnight fast, three animals (4.5 to 8 kg) received BMS-869780 by IV infusion via a femoral vein at 1 mg/kg over 10 minutes in PEG400 : ethanol (90 : 10), or by oral gavage at 5 mg/kg in Povidone K-30 : sodium lauryl sulfate : water (2.5 : 0.12 : 97.38). Serial blood samples, ~0.3 mL, were collected from a femoral artery into K3EDTA-containing tubes before dose and at 0.083, 0.17, 0.25, 0.5, 0.75, 1, 2, 4, 6, 8, and 24 hours after IV dose, and 0.25, 0.5, 0.75, 1, 2, 4, 6, 8, and 24 hours after oral dose, followed by centrifugation at 4°C (1500 to 2000 ×g) to obtain plasma. Samples were stored at −20°C until analysis of BMS-869780 levels by LC-MS/MS. The PK parameters of BMS-869780 were obtained by noncompartmental analysis of plasma concentration versus time data (WinNonlin software, Version 5.0; Pharsight Corporation, Mountain View, CA). The peak concentration (C max) and time for C max (T max) were recorded directly from experimental observations. The area under the curve from time zero to the last sampling time (AUC^0-T) and the area under the curve from time zero to infinity (AUC^INF) were calculated using a combination of linear and log trapezoidal summations. The total plasma clearance (CLTp), steady-state volume of distribution (Vss), apparent elimination half-life (T 1/2), and mean residence time (MRT) were estimated after IV administration. The absolute oral bioavailability (F) was estimated as the ratio of dose-normalized AUC values following oral and IV doses.
Figure 9 Pharmacokinetics (PK) of BMS-869780 across species for prediction of human PK. Rats, dogs, and cynomolgus monkeys were dosed with BMS-869780 intravenously (IV ▲) at 1 mg/kg or oral nanosuspension (PO ●) at 5 mg/kg. Plasma concentrations of BMS-869780 were determined for up to 24 hours after the dose. (a) Rat. (b) Dog. (c) Cynomolgus monkey.

Broadly, the AUC(0-t) is the area under the concentration-time curve up to a stated or last time point. In general, MRT refers to a mean duration of stay, worked out from the concentration-time curve. As usually defined, the clearance is the rate of elimination divided by the concentration. As a reminder, the half-life is how long it takes for the measured level to halve. What is called Cmax is the peak of the concentration-time curve. In general, Tmax refers to the time at which the peak concentration occurs. As a reminder, the bioavailability is the share of a dose that reaches the circulation, judged against a reference dose that is usually intravenous. Take `COc1cc(Nc2nc3n(n2)CCCC[C@H]3c2ccc(F)cc2)ccc1-n1cnc(Cl)c1` [BMS-869780]: where the note is “IV 1 mg/kg”, the AUC(0-t) worked out at 2.63 ± 0.926 µM·h, the MRT was found to be 3.8 ± 0.7 h, the clearance worked out at 15.2 ± 5.9 mL/min/kg and the half-life was 4 ± 0.5 h. Moreover, the Vd (IV 1 mg/kg, read-out: Vss) came out at 3.7 ± 1.3 L/kg. Besides, where the note is “PO suspension 5 mg/kg”, the AUC(0-t) worked out at 2.03 ± 1.04 µM·h, the Cmax turned out to be 219 ± 94 nM, the Tmax turned out to be 2 h and the bioavailability was found to be 16%.

These data come from publication PMC4109680, “Identification and Preclinical Pharmacology of the γ-Secretase Modulator BMS-869780” (International Journal of Alzheimer's Disease, 2014).
